Test results: patent US6943190B2, “Method of using pyruvate and/or its derivatives for the treatment of cytokine-mediated inflammatory conditions” (University of Pittsburgh-of the Commonwealth System of …, priority 2001, dated 2005)
Where two headings read alike, the source gives them in different places.

Assays:
TNF gene transcript = assay: TNF mRNA in LPS-stimulated RAW 264.7 cells (RNase protection assay); type: cell-based, murine
Method: Cell Culture. BALB/c murine macrophage-like RAW 264.7 cells obtained from the American Type Culture Collection (ATCC Number TIB-71, ATCC, Rockville, Mass.) (61), were cultured in RPMI 1640 (Life Technologies, Grand Island, N.Y.) supplemented with 10% heat inactivated fetal bovine serum (Gemini, Calabasas, Calif.), 2 mM glutamine (Cat. # 25030-149, Gibco BRL, Rockville, Mass.) and antibiotic-antimycotic mix (Cat. # 15240-062, Gibco BRL, Rockville, Mass.) in a humidified incubator with 5% CO2. Cells were mechanically removed and resuspended in serum-free Opti-MEM I medium (Life Technology, Grand Island, N.Y.) to perform experiments at 75% confluence.
Total RNA extraction and RNase protection assay. […] The levels of TNF and cyclophilin mRNA in RAW cells were measured using an RNase protection assay kit from PharMingen in accordance with the manufacturer's instructions (San Diego, Calif.). […] Molecular weight markers were prepared using pBR-322 plasmid DNA digested with MSP I (New England Bio Labs, Beverly, Mass.) and Klenow end-labeled (Strategene, La Jolla, Calif.) with ^α-32P-dCTP (800 Ci/mmol, Amersham); mRNA levels were measured with an Instantlmager (Packard Instrument Co., Meriden, Conn.).
To determine the effect of ethyl pyruvate on TNF synthesis by macrophages, murine macrophage-like RAW 264.7 cells were stimulated with endotoxin, and TNF measured in the conditioned media. […]

p38 MAPK = assay: LPS-induced p38 MAPK phosphorylation in RAW264.7 cells (western blot); type: cell-based, murine
Method: (a) RAW264.7 cells were stimulated with LPS in the presence of the indicated concentrations of ethyl pyruvate. The activation of NF-kB was analyzed by EMSA at 15 min and 4 hours using a ^32P-labeled NF-B probe. Ethyl pyruvate suppressed activation of NF-B in an ethyl pyruvate concentration dependent fashion. The experiment was repeated 3 times. (b) Supershift and competition studies. Nuclear extract of macrophages stimulated with LPS and incubated with antibody against p65-Rel to induce specific supershift of NF-κB complex. Nuclear extracts were incubated with 100-fold molar excess of unlabeled (cold) NP-κB or HIF-1 probe for competition analysis. (c) RAW264.7 cells were stimulated with LPS in the presence of the indicated concentration of ethyl pyruvate. The phosphorylation of p38MAPK was analyzed by western blot using antibodies against phosphorylated (thr180/tyr182) p38MAPK (in accordance with the manufacturer (New England Biolabs, Inc Cat. # 9210, Beverly, Mass.). (d) The total amount of p38 MAPK is visualized by western blot. Ethyl pyruvate prevents the phosphorylation of p38MAPK in macrophage cultures without affecting the intracellular level of total p38MAPK; and
Cell Culture. […]

HMGB-1 = assay: Serum HMGB-1 in endotoxemic mice (western blot); type: in vivo, Balb/C mice; conditions: for serum HMGB1: pretreatment 40 mg/kg 30 min before LPS, measured 20 hours after onset of endotoxemia
Method: Endotoxin shock. Mice were injected with endotoxin (Escherichia coli lipopolysaccharide, LPS 0111:B4; Sigma Chemical Co, St. Louis, Mo.) that was dissolved in sterile pyrogen-free saline at stock concentrations of 10 mg/ml. LPS solutions were sonicated for 20 min immediately prior to use for each experiment. Mice received an LD75 dose of LPS (5 mg/kg, i.p.). Blood was collected at different times after LPS administration, allowed to clot for 2 h at room temperature, then centrifuged for 20 min at 1,500 g. Serum samples were stored at […] prior to analysis. Mortality was recorded for up to 3 weeks after injection to ensure that no additional late deaths occurred.
Cytokine measurements. TNF concentration in mouse serum and in conditioned media from RAW 264.7 cell cultures was measured by ELISA (minimum detectable concentration=10 pg/ml). Recombinant mouse TNF standards were obtained from R&D Systems (Inc., Minneapolis, Minn.) and dissolved in 0.1% bovine serum albumin solution (BSA, low endotoxin grade from Sigma Chemical Co., St. Louis, Mo.). Monoclonal antibody to mouse TNF was purchased from Biosource International, Inc., Camarillo, Calif. Human TNF monoclonal antibody, human TNF antiserum and mouse TNF antiserum were prepared and contributed by Dr. Christine Metz. Mouse serum IL-6 and IL-1β levels were measured using ELISA kits (R&D Systems, Inc., Minneapolis, Minn.). HMGB-1 was analyzed by western blot as previously described by Wang et al, 1999. […] Protein was electroblotting to Immun-blot PVDF membrane (Bio-rad, Hercules Calif.) and HMGB-1 was analyzed using polyclonal 241 antibody and secondary anti-rabbit horseradish peroxidase (Amersham, Pitscataway, N.J.). Standard curves were constructed using r-HMGB-1, and the intensity of the 30 kD band analyzed by densitometry. […]
The therapeutic efficacy of the delayed administration of ethyl pyruvate after the onset of endotoxemia was assessed. […]

CCOC(=O)C(C)=O [ethyl pyruvate]
amount of TNF mRNA / TNF transcription (TNF gene transcript): prevents LPS-induced transcription of TNF in an ethyl pyruvate concentration dependent fashion
amount of TNF mRNA / TNF transcription (TNF gene transcript; listed as Ethyl pyruvate): significantly reduced the amount of TNF mRNA
LPS-induced phosphorylation of p38 MAPK (p38 MAPK; antibodies against phosphorylated (thr180/tyr182) p38MAPK): prevented the LPS-induced phosphorylation and subsequent activation of p38 MAPK
total levels of p38 MAPK (p38 MAPK; specificity control, western blot): did not significantly influence the total levels of p38 MAPK
systemic release of HMGB-1 (serum) (HMGB-1; delayed treatment beginning 4 hours post-LPS, measured at 20 hours): significantly attenuated the systemic release of HMGB-1
serum HMGB1 (HMGB-1): significantly attenuated
serum HMGB1 (HMGB-1; listed as Ethyl pyruvate): significantly inhibits serum HMGB-1 levels
